Values of other authors in publication PMC10828988, “Tuning the Softness of the Pendant Arms and the Polyazamacrocyclic Backbone to Chelate the ^203Pb/^212Pb Theranostic Pair” (Inorganic Chemistry, 2024).

Set-up: method as in doi:10.1016/0010-8545(91)80023-7
Settings: T = 25 °C, nonfunctionalized macrocycles; cited from earlier work

Q: For C1CNCCNCCNCCN1 [cyclen, 1,4,7,10-tetrazacyclododecane], which “logK Pb^2+-macrocycle” value is on record?
A: The value was 15.9.
